Values of other authors, collected in patent US6703036B1, “Stomach-action molluscicides” (priority 1997, dated 2004).

What was measured:
[1] = test system: golden apple snail, Pomacea canaliculata; conditions: used on its own at 100 ppm, aqueous solution on the water surface
rat = conditions: oral administration

Compound | molluscicidal activity [1] | LD50 (rat) [mg/kg]
CCCCCCCCCCCCOS(=O)(=O)[O-].[Na+] [Sodium dodecyl sulphate] | effective molluscicide | 
Sorbitan monolaurate |  | 33600
Sorbitan monostearate |  | 31000
